This is an account of results in patent US10934298B2, “Substituted pyrazolo[1,5-a]pyrimidines for the treatment of medical disorders” (BIAL—BioTech Investments, Inc., priority 2016, dated 2021).

For the experiment, the target named is T1, glucocerebrosidase (Gcase) (Homo sapiens, UniProt P04062).
T1 construct: micellar solution containing 10 nM GCase and 100 nM saposin C
T1 sequence (P04062 40-536): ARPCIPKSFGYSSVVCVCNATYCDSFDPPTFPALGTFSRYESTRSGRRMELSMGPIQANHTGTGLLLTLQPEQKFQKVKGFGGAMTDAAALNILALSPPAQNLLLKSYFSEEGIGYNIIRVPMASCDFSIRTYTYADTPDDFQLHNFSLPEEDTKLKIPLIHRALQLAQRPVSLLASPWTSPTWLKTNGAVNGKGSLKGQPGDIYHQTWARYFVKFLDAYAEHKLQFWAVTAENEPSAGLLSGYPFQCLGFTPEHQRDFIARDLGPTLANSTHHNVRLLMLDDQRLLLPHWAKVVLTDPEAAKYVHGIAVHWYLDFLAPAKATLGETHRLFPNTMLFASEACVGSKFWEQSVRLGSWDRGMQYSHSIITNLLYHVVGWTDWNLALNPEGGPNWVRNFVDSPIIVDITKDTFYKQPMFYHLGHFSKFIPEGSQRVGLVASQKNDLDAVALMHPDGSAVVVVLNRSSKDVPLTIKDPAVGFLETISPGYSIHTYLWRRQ
Briefly: Glucocerebrosidase (Gcase) activation assay with 4-methylumbelliferyl-beta-D-glucopyranoside substrate, saposin C and phosphatidylserine/triton micelles, fluorescence readout. Type of experiment: biochemical. An outline of the steps:
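Readout is endpoint fluorescence (ex 365, em 440 nm) after glycine pH 12.5 stop of a 15-min room-temperature reaction. Enzyme mix: GCase 10 nM plus saposin C 100 nM in 0.37 mol % PS/0.32 mM triton micelles, pH 4.7, compound pre-incubated 30 min; substrate solution 2 mM before 1:1 mixing. Tested at 1.0/0.1 μM, then 3-fold, 8-point series up to 5 μM.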

With `Cc1cc(-c2ccoc2)nc2c(C(=O)N[C@H](C)C(F)(F)F)cnn12` [III-337], the “Percent Gcase Activation, 0.1 μM Test Compound” value is on record as “*** (greater than 20% Gcase activation)” and the “Percent Gcase Activation, 1 μM Test Compound” value is on record as “+++ (Gcase activation greater than 60%)”.
The corresponding values for `Cc1cc(-c2cc(C)n3ncc(C(=O)N[C@H](C)C(F)(F)F)c3n2)co1` [III-338] are “*** (greater than 20% Gcase activation)” and “+++ (Gcase activation greater than 60%)”.
The corresponding values for `Cc1cc(-c2cc(C)n3ncc(C(=O)N[C@@H](C)C(F)(F)F)c3n2)co1` [III-339] are “*** (greater than 20% Gcase activation)” and “+++ (Gcase activation greater than 60%)”.
The corresponding values for `Cc1occc1-c1cc(C)n2ncc(C(=O)N[C@H](C)C(F)(F)F)c2n1` [III-340] are “*** (greater than 20% Gcase activation)” and “+++ (Gcase activation greater than 60%)”.
Take `Cc1cc(-c2cc(C)n3ncc(C(=O)N[C@H](C4CC4)C(F)(F)F)c3n2)no1` [III-341]: the “Percent Gcase Activation, 0.1 μM Test Compound” value is “*** (greater than 20% Gcase activation)” and the “Percent Gcase Activation, 1 μM Test Compound” value was “+++ (Gcase activation greater than 60%)”.
Turning to `Cc1conc1-c1cc(C)n2ncc(C(=O)N[C@H](C3CC3)C(F)(F)F)c2n1` [III-342], the “Percent Gcase Activation, 0.1 μM Test Compound” value is listed as “*** (greater than 20% Gcase activation)” and the “Percent Gcase Activation, 1 μM Test Compound” value was “+++ (Gcase activation greater than 60%)”.
For the compound `Cc1cc(-c2cc(C)n3ncc(C(=O)N[C@H](C4CC4)C(F)(F)F)c3n2)on1` [III-343], the “Percent Gcase Activation, 0.1 μM Test Compound” value was “*** (greater than 20% Gcase activation)” and the “Percent Gcase Activation, 1 μM Test Compound” value is “+++ (Gcase activation greater than 60%)”.
The corresponding values for `Cc1cnoc1-c1cc(C)n2ncc(C(=O)N[C@H](C3CC3)C(F)(F)F)c2n1` [III-344] are “*** (greater than 20% Gcase activation)” and “+++ (Gcase activation greater than 60%)”.
The corresponding values for `Cc1nc(-c2cc(C)n3ncc(C(=O)N[C@H](C)C(F)(F)F)c3n2)oc1C` [III-345] are “** (Gcase activation in the range of 10% up to 20%)” and “+++ (Gcase activation greater than 60%)”.
The corresponding values for `Cc1cc(-c2cc(C)n3ncc(C(=O)N[C@@H](C)C4CC4)c3n2)sn1` [III-346] are “** (Gcase activation in the range of 10% up to 20%)” and “+++ (Gcase activation greater than 60%)”.
On to `Cc1cc(C#N)c(-c2cc(C)n3ncc(C(=O)N[C@H](C)C(F)(F)F)c3n2)s1` [III-347], for which the “Percent Gcase Activation, 0.1 μM Test Compound” value is recorded as “*** (greater than 20% Gcase activation)” and the “Percent Gcase Activation, 1 μM Test Compound” value is listed as “+++ (Gcase activation greater than 60%)”.
The corresponding values for `Cc1cc(C#N)c(-c2cc(C)n3ncc(C(=O)N[C@@H](C)C(F)(F)F)c3n2)s1` [III-348] are “*** (greater than 20% Gcase activation)” and “+++ (Gcase activation greater than 60%)”.
The corresponding values for `Cc1cc(-c2cc(F)ccc2C#N)nc2c(C(=O)N[C@H](C)C(F)(F)F)cnn12` [III-349] are “*** (greater than 20% Gcase activation)” and “++ (Gcase activation in the range of 30% up to 60%)”.
The corresponding values for `Cc1cc(-c2cc(F)ccc2C#N)nc2c(C(=O)N[C@@H](C)C(F)(F)F)cnn12` [III-350] are “*** (greater than 20% Gcase activation)” and “+++ (Gcase activation greater than 60%)”.
On to `Cc1cc(-c2cc(C#N)ccc2F)nc2c(C(=O)N[C@H](C)C(F)(F)F)cnn12` [III-351], for which the “Percent Gcase Activation, 0.1 μM Test Compound” value is given as “** (Gcase activation in the range of 10% up to 20%)” and the “Percent Gcase Activation, 1 μM Test Compound” value was “+++ (Gcase activation greater than 60%)”.
The corresponding values for `Cc1cc(-c2cc(C#N)ccc2F)nc2c(C(=O)N[C@@H](C)C(F)(F)F)cnn12` [III-352] are “** (Gcase activation in the range of 10% up to 20%)” and “+++ (Gcase activation greater than 60%)”.
The corresponding values for `Cc1cc(-c2cnccc2C(F)(F)F)nc2c(C(=O)N[C@H](C3CC3)C(F)(F)F)cnn12` [III-353] are “*** (greater than 20% Gcase activation)” and “+++ (Gcase activation greater than 60%)”.
The corresponding values for `Cc1cc(-c2cnccc2C(F)(F)F)nc2c(C(=O)N[C@@H](C3CC3)C(F)(F)F)cnn12` [III-354] are “*** (greater than 20% Gcase activation)” and “+++ (Gcase activation greater than 60%)”.
Consider `Cc1cc(-c2cccnc2C(F)(F)F)nc2c(C(=O)N[C@H](C3CC3)C(F)(F)F)cnn12` [III-355], for which the “Percent Gcase Activation, 0.1 μM Test Compound” value is listed as “*** (greater than 20% Gcase activation)” and the “Percent Gcase Activation, 1 μM Test Compound” value was “+++ (Gcase activation greater than 60%)”.
On to `Cc1cc(-c2cccnc2C(F)(F)F)nc2c(C(=O)N[C@@H](C3CC3)C(F)(F)F)cnn12` [III-356], for which the “Percent Gcase Activation, 0.1 μM Test Compound” value is on record as “*** (greater than 20% Gcase activation)” and the “Percent Gcase Activation, 1 μM Test Compound” value is on record as “+++ (Gcase activation greater than 60%)”.
`Cc1cc(N2CC(C)(C)N(C)C2=O)nc2c(C(=O)N[C@H](C3CC3)C(F)(F)F)cnn12` [III-357]: the “Percent Gcase Activation, 0.1 μM Test Compound” value is on record as “** (Gcase activation in the range of 10% up to 20%)” and the “Percent Gcase Activation, 1 μM Test Compound” value is on record as “+++ (Gcase activation greater than 60%)”.
The corresponding values for `Cc1cc(N2CC(C)(C)OC2=O)nc2c(C(=O)N[C@H](C3CC3)C(F)(F)F)cnn12` [III-358] are “* (less than 10% Gcase activation)” and “++ (Gcase activation in the range of 30% up to 60%)”.
The corresponding values for `Cc1cc(-c2ccc(F)cc2)nc2c(C(=O)N[C@H](C)C(F)(F)F)cnn12` [III-359] are “** (Gcase activation in the range of 10% up to 20%)” and “+++ (Gcase activation greater than 60%)”.
The corresponding values for `Cc1cc(-c2ccc(F)cc2)nc2c(C(=O)N[C@@H](C)C(F)(F)F)cnn12` [III-360] are “*** (greater than 20% Gcase activation)” and “+++ (Gcase activation greater than 60%)”.
On to `Cc1cc(-c2cccc(F)c2)nc2c(C(=O)N[C@H](C)C(F)(F)F)cnn12` [III-361], for which the “Percent Gcase Activation, 0.1 μM Test Compound” value is on record as “*** (greater than 20% Gcase activation)” and the “Percent Gcase Activation, 1 μM Test Compound” value is given as “+++ (Gcase activation greater than 60%)”.
The corresponding values for `Cc1cc(-c2cccc(F)c2)nc2c(C(=O)N[C@@H](C)C(F)(F)F)cnn12` [III-362] are “*** (greater than 20% Gcase activation)” and “+++ (Gcase activation greater than 60%)”.
With `Cc1cc(-c2cncc(C#N)c2)nc2c(C(=O)N[C@H](C3CC3)C(F)(F)F)cnn12` [III-363], the “Percent Gcase Activation, 0.1 μM Test Compound” value is listed as “*** (greater than 20% Gcase activation)” and the “Percent Gcase Activation, 1 μM Test Compound” value is recorded as “+++ (Gcase activation greater than 60%)”.
For `Cc1cc(-c2cncc(C#N)c2)nc2c(C(=O)N[C@@H](C3CC3)C(F)(F)F)cnn12` [III-364], the “Percent Gcase Activation, 0.1 μM Test Compound” value is reported as “** (Gcase activation in the range of 10% up to 20%)” and the “Percent Gcase Activation, 1 μM Test Compound” value is listed as “+++ (Gcase activation greater than 60%)”.
The corresponding values for `Cc1cc(-c2cccnc2C#N)nc2c(C(=O)N[C@H](C3CC3)C(F)(F)F)cnn12` [III-365] are “** (Gcase activation in the range of 10% up to 20%)” and “+++ (Gcase activation greater than 60%)”.
The corresponding values for `Cc1cc(-c2cccnc2C#N)nc2c(C(=O)N[C@@H](C3CC3)C(F)(F)F)cnn12` [III-366] are “*** (greater than 20% Gcase activation)” and “+++ (Gcase activation greater than 60%)”.
For `Cc1cc(-c2ccc(C#N)nc2)nc2c(C(=O)N[C@H](C3CC3)C(F)(F)F)cnn12` [III-367], the “Percent Gcase Activation, 0.1 μM Test Compound” value is recorded as “** (Gcase activation in the range of 10% up to 20%)” and the “Percent Gcase Activation, 1 μM Test Compound” value was “+++ (Gcase activation greater than 60%)”.
The corresponding values for `Cc1cc(-c2ccc(C#N)nc2)nc2c(C(=O)N[C@@H](C3CC3)C(F)(F)F)cnn12` [III-368] are “** (Gcase activation in the range of 10% up to 20%)” and “+++ (Gcase activation greater than 60%)”.
The corresponding values for `Cc1cc(-c2cncc(C#N)c2)nc2c(C(=O)NC(C)(C)C3CC3)cnn12` [III-369] are “** (Gcase activation in the range of 10% up to 20%)” and “+++ (Gcase activation greater than 60%)”.
